Where “and” joins values, the source holds several entries; their conditions need not be identical. Equal entries are not always repeated. Toxic doses and inconclusive results are not listed.
Test system: P388 leukemia ip, CD2F1 mice, survival T/C
Test: NCI In Vivo Anticancer Drug Screen. Data for tumor model P388 Leukemia (intraperitoneal) in CD2F1 (CDF1) mice
Conditions: endpoint: median survival time, higher = longer survival
Summary of the method: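 Mice carrying the transplanted tumor received test compound or vehicle. Survival was recorded in each group, and the value is the treated-group measurement divided by that of the vehicle-treated control group.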

[1] = dose: 25.0 mg/kg/injection, schedule: Q01DX005 (ip), vehicle: saline with Tween-80
[2] = dose: 200.0 mg/kg/injection, schedule: Q01DX005 (ip), vehicle: saline with Tween-80
[3] = dose: 50.0 mg/kg/injection, schedule: Q01DX005 (ip), vehicle: saline with Tween-80
[4] = dose: 100.0 mg/kg/injection, schedule: Q01DX005 (ip), vehicle: saline with Tween-80
[5] = dose: 12.5 mg/kg/injection, schedule: Q04DX002 (ip), vehicle: saline with Tween-80
[6] = dose: 25.0 mg/kg/injection, schedule: Q04DX002 (ip), vehicle: saline with Tween-80
[7] = dose: 50.0 mg/kg/injection, schedule: Q04DX002 (ip), vehicle: saline with Tween-80
[8] = dose: 50.0 mg/kg/injection, schedule: Q01DX005 (ip), vehicle: Klucel (hydroxypropylcellulose) (HPC)
[9] = dose: 100.0 mg/kg/injection, schedule: Q01DX005 (ip), vehicle: Klucel (hydroxypropylcellulose) (HPC)
[10] = dose: 200.0 mg/kg/injection, schedule: Q01DX005 (ip), vehicle: Klucel (hydroxypropylcellulose) (HPC)
[11] = dose: 50.0 mg/kg/injection, schedule: Q01DX009 (ip), vehicle: saline with Tween-80
[12] = dose: 100.0 mg/kg/injection, schedule: Q01DX009 (ip), vehicle: saline with Tween-80
[13] = dose: 60.0 mg/kg/injection, schedule: Q01DX005 (ip), vehicle: saline with Tween-80
[14] = dose: 120.0 mg/kg/injection, schedule: Q01DX005 (ip), vehicle: saline with Tween-80
[15] = dose: 240.0 mg/kg/injection, schedule: Q01DX005 (ip), vehicle: saline with Tween-80
[16] = dose: 50.0 mg/kg/injection, schedule: Q01DX009 (ip), vehicle: Klucel (hydroxypropylcellulose) (HPC)
[17] = dose: 100.0 mg/kg/injection, schedule: Q01DX009 (ip), vehicle: Klucel (hydroxypropylcellulose) (HPC)

CCN(CC)CCN=c1nc(/C=C\C=C\NN(C)C(=S)SC)c(C)nn1C
T/C (dose: 6.25 mg/kg/injection, schedule: Q01DX005 (ip), vehicle: saline with Tween-80): 103 % of control
T/C (dose: 12.5 mg/kg/injection, schedule: Q01DX005 (ip), vehicle: saline with Tween-80): 87 % of control
T/C [1]: 89 % of control
T/C [2]: 90 % of control

CCN(CC)Cc1c(OC)ccc2[nH]c3c4ccc(Cl)cc4ncc3c12
T/C [1]: 109 % of control
T/C [3]: 101 % of control
T/C [4]: 106 % of control
T/C [2]: 112 % of control

COc1ccc2c(c1OC)C(OC)OC(c1cc3c(cc1CCN(C)C)OCO3)C2 (centres undefined)
T/C (dose: 12.5 mg/kg/injection, schedule: Q01DX001 (ip), vehicle: saline + alcohol): 91 % of control
T/C (dose: 25.0 mg/kg/injection, schedule: Q01DX001 (ip), vehicle: saline + alcohol): 88 % of control
T/C (dose: 50.0 mg/kg/injection, schedule: Q01DX001 (ip), vehicle: saline + alcohol): 91 % of control

CN=C1NC2C(C(=O)N(C)C(=O)N2C)C(=S)N1C (centres undefined)
T/C (dose: 6.25 mg/kg/injection, schedule: Q04DX002 (ip), vehicle: saline with Tween-80): 100 % of control
T/C [5]: 104 % of control
T/C [6]: 101 % of control

Cc1c(O)c2c(c(O)c1Cc1ccc(CN)cc1)C(=O)c1ccccc1C2=O
T/C (dose: 12.5 mg/kg/injection, schedule: Q04DX003 (ip), vehicle: water): 98 % of control
T/C (dose: 25.0 mg/kg/injection, schedule: Q04DX003 (ip), vehicle: water): 90 % of control
T/C (dose: 50.0 mg/kg/injection, schedule: Q04DX003 (ip), vehicle: water): 93 % of control
T/C (dose: 100.0 mg/kg/injection, schedule: Q04DX003 (ip), vehicle: water): 103 % of control

COC(=O)CC1(C(=O)OC)C(Sc2ccccc2)=C(c2ccccc2)N2CCCC21 (centres undefined)
T/C (dose: 21.88 mg/kg/injection, schedule: Q01DX009 (ip), vehicle: Klucel (hydroxypropylcellulose) (HPC)): 101 % of control
T/C (dose: 43.75 mg/kg/injection, schedule: Q01DX009 (ip), vehicle: Klucel (hydroxypropylcellulose) (HPC)): 96 % of control
T/C (dose: 87.5 mg/kg/injection, schedule: Q01DX009 (ip), vehicle: Klucel (hydroxypropylcellulose) (HPC)): 96 % of control
T/C (dose: 175.0 mg/kg/injection, schedule: Q01DX009 (ip), vehicle: Klucel (hydroxypropylcellulose) (HPC)): 92 % of control

O=S(=O)(N=N/C=C1\C=CC=CN1O)c1cccs1
T/C [7]: 100 % of control
T/C (dose: 600.0 mg/kg/injection, schedule: Q04DX002 (ip), vehicle: saline with Tween-80): 117 % of control

CC(C)N1CCOCC1
T/C (dose: 25.0 mg/kg/injection, schedule: Q01DX009 (ip), vehicle: saline): 110 % of control
T/C (dose: 50.0 mg/kg/injection, schedule: Q01DX009 (ip), vehicle: saline): 105 % of control and 100 % of control
T/C (dose: 100.0 mg/kg/injection, schedule: Q01DX009 (ip), vehicle: saline): 105 % of control and 113 % of control

CN1C(=O)/C(=N\n2c(-c3ccccc3)nc3ccccc3c2=O)c2ccccc21
T/C (dose: 25.0 mg/kg/injection, schedule: Q01DX005 (ip), vehicle: Klucel (hydroxypropylcellulose) (HPC)): 91 % of control
T/C [8]: 87 % of control and 88 % of control
T/C [9]: 102 % of control and 89 % of control
T/C [10]: 100 % of control

CN1CCCN(C)C1c1ccccc1O
T/C (dose: 12.5 mg/kg/injection, schedule: Q01DX009 (ip), vehicle: saline sonified): 100 % of control
T/C (dose: 25.0 mg/kg/injection, schedule: Q01DX009 (ip), vehicle: saline sonified): 90 % of control
T/C (dose: 50.0 mg/kg/injection, schedule: Q01DX009 (ip), vehicle: saline sonified): 100 % of control

C=C(C)/C=C/S(=O)c1ccccc1 (centres undefined)
T/C [8]: 100 % of control
T/C [9]: 97 % of control
T/C [10]: 98 % of control

FC(F)(F)COP1OCCS1 (centres undefined)
T/C [5]: 99 % of control
T/C [6]: 99 % of control
T/C [7]: 98 % of control
T/C (dose: 100.0 mg/kg/injection, schedule: Q04DX002 (ip), vehicle: saline with Tween-80): 100 % of control
T/C (dose: 200.0 mg/kg/injection, schedule: Q04DX002 (ip), vehicle: saline with Tween-80): 104 % of control

O=[N+]([O-])c1ccc(OCS(=O)(=O)c2ccc(Cl)cc2)cc1
T/C [11]: 95 % of control
T/C [12]: 92 % of control
T/C (dose: 200.0 mg/kg/injection, schedule: Q01DX009 (ip), vehicle: saline with Tween-80): 95 % of control

COc1ccc(N2C(=O)C(N=Nc3ccc(S(=O)(=O)Nc4ncccn4)cc3)C(=O)N(c3ccccc3)C2=S)cc1 (centres undefined)
T/C (dose: 50.0 mg/kg/injection, schedule: Q01DX005 (ip), vehicle: saline): 103 % of control
T/C (dose: 100.0 mg/kg/injection, schedule: Q01DX005 (ip), vehicle: saline): 95 % of control
T/C (dose: 200.0 mg/kg/injection, schedule: Q01DX005 (ip), vehicle: saline): 98 % of control

CCn1c(=O)c(Cl)c2n(C)c3ccccc3n2c1=O
T/C [13]: 97 % of control
T/C [14]: 95 % of control
T/C [15]: 94 % of control

O=NNc1ccc(Sc2ccccc2)cn1
T/C (dose: 6.25 mg/kg/injection, schedule: Q01DX009 (ip), vehicle: saline): 153 % of control
T/C (dose: 12.5 mg/kg/injection, schedule: Q01DX009 (ip), vehicle: saline): 88 % of control and 90 % of control

NC(=O)OCCCCOC(N)=O
T/C [16]: 100 % of control
T/C [17]: 98 % of control

O=C1CSC(c2ccccc2)N1c1nncs1 (centres undefined)
T/C (dose: 30.0 mg/kg/injection, schedule: Q01DX005 (ip), vehicle: Klucel (hydroxypropylcellulose) (HPC)): 100 % of control
T/C (dose: 60.0 mg/kg/injection, schedule: Q01DX005 (ip), vehicle: Klucel (hydroxypropylcellulose) (HPC)): 101 % of control
T/C (dose: 120.0 mg/kg/injection, schedule: Q01DX005 (ip), vehicle: Klucel (hydroxypropylcellulose) (HPC)): 101 % of control
T/C (dose: 240.0 mg/kg/injection, schedule: Q01DX005 (ip), vehicle: Klucel (hydroxypropylcellulose) (HPC)): 103 % of control

CCCC[P+](CCCC)(CCCC)CC(=O)O
T/C (dose: 25.0 mg/kg/injection, schedule: Q01DX009 (ip), vehicle: saline with Tween-80): 97 % of control
T/C [11]: 100 % of control
T/C [12]: 95 % of control

CC1=NN(c2ccccc2)C(=O)C1=Nc1c(C)[nH]n(-c2ccccc2)c1=O
T/C (dose: 15.0 mg/kg/injection, schedule: Q01DX009 (ip), vehicle: saline with Tween-80): 103 % of control
T/C (dose: 30.0 mg/kg/injection, schedule: Q01DX009 (ip), vehicle: saline with Tween-80): 101 % of control
T/C [3]: 114 % of control and 96 % of control
T/C (dose: 60.0 mg/kg/injection, schedule: Q01DX009 (ip), vehicle: saline with Tween-80): 105 % of control
T/C [4]: 104 % of control and 102 % of control
T/C [2]: 98 % of control and 110 % of control

CC(=O)OCc1c(COC(C)=O)c(C(F)(F)F)n2c1CCC2
T/C [16]: 90 % of control
T/C [17]: 93 % of control
T/C (dose: 200.0 mg/kg/injection, schedule: Q01DX009 (ip), vehicle: Klucel (hydroxypropylcellulose) (HPC)): 104 % of control

O=C(Nc1ccccc1)/C(Cl)=C1/Sc2ccccc2NC1=O
T/C [13]: 104 % of control
T/C [14]: 107 % of control
T/C [15]: 99 % of control
